Data published in patent publication US9751854B2 (Millennium Pharmaceuticals, Inc., priority 2014, dated 2017).

Tests used:
human VPS34 = human VPS34 (Homo sapiens (Human), UniProt Q8NEB9); assay: Human VPS34 enzyme assay (Adapta TR-FRET ADP detection); assay type: biochemical; settings: IC50 range class
NCI-H1650 cell line = assay: Cellular anti-proliferative assay of VPS34 inhibitors in combination with a second therapeutic agent (Cell Titer Glo, 72 hrs); assay type: cell-based, human; settings: NCI H-1650; for Blending Synergy: in combination with Erlotinib (Compound Y)
Experimental: (§1) Example 57: Cellular Assay for Anti-proliferative Activity of VPS34 Inhibitors in Combination with a Second Therapeutic Agent
(§2) Cells were plated in 25 μl of media in 384 well plates at 1,000 cells per well (A431, PC9, and […] cell lines), 1,500 cells per well (NCI-H1975) or 2,000 cells per well (NCI-H1650). The plates were incubated for 24 hrs at 37° C., 6% CO2. The test compounds (see Table 38 below) were diluted serially, and 62.5 nL of each compound solution (or DMSO, if it is a single agent experiment) is added so the total added to the cells is 125 nL. Cell plates were incubated for 72 hrs at 37° C., 6% CO2. Cell Titer Glo reagent (Promega) was added. The plates were then incubated for 10 minutes at room temperature before luminescence was read on a plate reader such as the Pherastar Plus, Pherastar FS, or LEADSeeker imaging system.
(§3) Bliss antagonism was defined similarly.
(§4) Bliss dependence was defined as the percent cell survival at a certain dose combination divided by the percent cell survival predicted by Bliss independence. More specifically, the Bliss dependence is vAB/(vA*vB), where vAB is the viability with drug A and drug B added, while vA and vB are the viabilities with each drug alone. The dose for the combination used in this study is the inflection point for each drug alone.
(§5) Another way to evaluate additivity is through consideration of Loewe additivity. A difference between Bliss independence and Loewe additivity evaluations of drug combination data is that Bliss independence evaluates whether two drugs interact at all (the null hypothesis is that the mechanisms are entirely independent) and Loewe additivity evaluates whether two drugs interact in an additive fashion (the null hypothesis is that the two drugs work by identical mechanisms). For Bliss independence, the boundary between additivity and synergy must be measured. For Loewe additivity, this boundary is assumed to be at a value of 1. Thus, Bliss independence provides a boundary between antagonism and synergy or additivity. Loewe additivity provides a boundary between synergy and independence or antagonism.
(§6) Synergy can also be measured by nonlinear blending synergy. Nonlinear blending synergy [Peterson, J. J. and Novik, S. J. J Recept Signal Transduct Res, 27, 12-146 (2007))] is found by considering the percent cell death values along the nonlinear blending plot. If the maximum cell death occurs between the endpoints, then the blending synergy is the difference between the maximum cell death for the combined drugs and the maximum cell death for the either drug alone.
(§7) A derivative of Loewe additivity is the Combination Index, I (see Chou T. C., Talalay P. Adv. Enzyme Reg., 22: 27-55 (1984) and Berenbaum M. C. J. Theor. Biol., 114:413-431 (1985)). This measure is based on the shape of the isobologram which represents 50% viability (for a review of the use of isobolograms in analysis of drug combinations, see Tallarida, R. J. J. Pharm. Exp. Therap. 319:1-7 (2006)).
(§8) The results in Table 38A were summarized by categorizing the Combination Index, I. A mean Combination Index in the range (0.7-1.3) is classified as Additivity. A mean in the range (0-0.7) is classified as Synergy. A mean in the range (1.3-2) is classified as Subadditivity. A mean greater than 2 is classified as Antagonism. […] In this case, the Nonlinear Blending Synergy is used instead to generate a call (Table 38B). The categorization is similar to the Combination Index. A Nonlinear Blending Synergy within the range (−20, 20) is classified as Additive. A value below −20 is classified as Antagonism, while a value above 20 is classified as Synergy.

PC9 cell line = assay: as above; assay type: cell-based, human
Experimental: as §1, §2, §3, §4, §5, §6, §7, §8

NCI-H1975 cell line = assay: as above; assay type: cell-based, human
Experimental: as §1, §2, §3, §4, §5, §6, §7, §8

A431 cell line = assay: as above; assay type: cell-based
Experimental: as §1, §2, §3, §4, §5, §6, §7, §8

[1] = in combination with Afatinib (Compound Y)
[2] = in combination with Afatinib, call from Combination Index
[3] = in combination with Erlotinib (Compound Y)
[4] = in combination with Erlotinib, call from Combination Index
[5] = in combination with AZD9291 (Compound Y)
[6] = in combination with CO-1686 (Compound Y)
[7] = in combination with AZD9291, call from Combination Index
[8] = in combination with CO-1686, call from Combination Index

Sequence of human VPS34 (Q8NEB9 whole entry): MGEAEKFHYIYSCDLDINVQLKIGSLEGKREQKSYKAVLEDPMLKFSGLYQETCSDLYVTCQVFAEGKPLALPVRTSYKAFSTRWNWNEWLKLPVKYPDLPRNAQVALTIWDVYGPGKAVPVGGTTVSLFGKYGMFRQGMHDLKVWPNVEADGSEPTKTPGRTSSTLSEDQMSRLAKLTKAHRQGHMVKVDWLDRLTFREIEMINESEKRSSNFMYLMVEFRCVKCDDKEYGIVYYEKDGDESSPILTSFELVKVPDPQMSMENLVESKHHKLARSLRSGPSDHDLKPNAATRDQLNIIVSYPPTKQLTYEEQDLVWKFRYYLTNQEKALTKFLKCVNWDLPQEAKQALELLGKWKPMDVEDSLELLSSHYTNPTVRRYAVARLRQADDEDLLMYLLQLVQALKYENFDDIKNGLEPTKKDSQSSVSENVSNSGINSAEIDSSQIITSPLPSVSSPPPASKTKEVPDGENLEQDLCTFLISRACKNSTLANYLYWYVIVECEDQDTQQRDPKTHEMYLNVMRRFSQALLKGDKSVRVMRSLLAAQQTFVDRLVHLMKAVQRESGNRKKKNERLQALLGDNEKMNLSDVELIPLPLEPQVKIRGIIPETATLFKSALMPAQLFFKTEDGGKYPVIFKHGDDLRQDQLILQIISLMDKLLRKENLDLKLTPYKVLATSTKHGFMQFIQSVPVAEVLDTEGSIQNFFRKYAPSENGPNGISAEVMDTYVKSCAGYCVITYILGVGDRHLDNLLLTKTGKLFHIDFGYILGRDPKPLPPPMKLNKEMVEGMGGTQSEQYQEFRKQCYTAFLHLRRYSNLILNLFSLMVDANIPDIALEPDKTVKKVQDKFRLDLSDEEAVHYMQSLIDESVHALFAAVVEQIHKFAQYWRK

Row | SMILES | IC50 (human VPS34) | Combination Index (NCI-H1650 cell line; [1]) | Blending Synergy (NCI-H1650 cell line) | Combination Index (PC9 cell line; [1]) | Meaning (PC9 cell line; [2]) | Combination Index (PC9 cell line; [3]) | Meaning (PC9 cell line; [4]) | Combination Index (NCI-H1975 cell line; [1]) | Combination Index (A431 cell line; [1]) | Meaning (A431 cell line; [2]) | Combination Index (A431 cell line; [3]) | Meaning (A431 cell line; [4]) | Combination Index (NCI-H1650 cell line; [5]) | Combination Index (NCI-H1650 cell line; [6]) | Combination Index (PC9 cell line; [5]) | Meaning (PC9 cell line; [7]) | Combination Index (PC9 cell line; [6]) | Meaning (PC9 cell line; [8]) | Combination Index (NCI-H1975 cell line; [5]) | Combination Index (NCI-H1975 cell line; [6]) | also measured
1 | CC(=O)Nc1cc(-c2cnc(C)c(NS(=O)(=O)N(C)C)c2)ccn1 [Compound I-32, N-{5-[(dimethylsulfamoyl)amino]-6-methyl-3,4′-bipyridin-2′-yl}acetamide] | < 10 nM | 0.40 | 22.29 | 0.79 | Additivity (A mean Combination Index in the range (0.7-1.3) is classified as Additivity) | 0.78 | Additivity (A mean Combination Index in the range (0.7-1.3) is classified as Additivity) | 0.66 | 0.25 | Synergy (A mean in the range (0-0.7) is classified as Synergy) | 0.73 | Additivity (A mean Combination Index in the range (0.7-1.3) is classified as Additivity) |  |  |  |  |  |  |  |  | 
2 | Cc1nccc(Nc2cc(-c3cnc(Cl)c(NS(=O)(=O)c4ccc(F)cc4F)c3C)ccn2)n1 [Compound I-299, N-{6-chloro-4-methyl-2′-[(2-methylpyrimidin-4-yl)amino]-3,4′-bipyridin-5-yl}-2,4-difluorobenzenesulfonamide] | 10 to 50 nM | 0.47 | 26.93 | 1.37 | Subadditivity (A mean in the range (1.3-2) is classified as Subadditivity) | 1.18 | Additivity (A mean Combination Index in the range (0.7-1.3) is classified as Additivity) | 0.68 | 1.01 | Additivity (A mean Combination Index in the range (0.7-1.3) is classified as Additivity) | 1.01 | Additivity (A mean Combination Index in the range (0.7-1.3) is classified as Additivity) | 0.87 | 0.43 | 1.17 | Additivity (A mean Combination Index in the range (0.7-1.3) is classified as Additivity) | 1.00 | Additivity (A mean Combination Index in the range (0.7-1.3) is classified as Additivity) | 0.54 | 0.72 | Combination Index (A431 cell line; [5]): 1.00; Meaning (A431 cell line; [7]): Additivity (A mean Combination Index in the range (0.7-1.3) is classified as Additivity); Combination Index (A431 cell line; [6]): 1.02; Meaning (A431 cell line; [8]): Additivity (A mean Combination Index in the range (0.7-1.3) is classified as Additivity)
3 | CC(=O)Nc1cc(-c2cnc(C)c(NS(=O)(=O)c3ccc(Cl)cc3F)c2)ccn1 [Compound I-94, N-(5-{[(4-chloro-2-fluorophenyl)sulfonyl]amino}-6-methyl-3,4′-bipyridin-2′-yl)acetamide] | < 10 nM | 0.65 | 23.69 | 1.04 | Additivity (A mean Combination Index in the range (0.7-1.3) is classified as Additivity) | 0.91 | Additivity (A mean Combination Index in the range (0.7-1.3) is classified as Additivity) | 0.54 | 0.23 | Synergy (A mean in the range (0-0.7) is classified as Synergy) | 0.38 | Synergy (A mean in the range (0-0.7) is classified as Synergy) |  |  |  |  |  |  |  |  | 
4 | Cc1nccc(Nc2cc(-c3cnc(C)c(C(=O)N4CCC4)c3)ccn2)n1 [Compound I-304, Azetidin-1-yl(6-methyl-2′-((2-methylpyrimidin-4-yl)amino)-3,4′-bipyridin-5-yl)methanone] | 10 to 50 nM |  |  |  |  |  |  |  |  |  |  |  | 0.80 | 0.47 | 0.98 | Additivity (A mean Combination Index in the range (0.7-1.3) is classified as Additivity) | 0.90 | Additivity (A mean Combination Index in the range (0.7-1.3) is classified as Additivity) | 1.00 | 0.77 | Combination Index (A431 cell line; [5]): 0.78; Meaning (A431 cell line; [7]): Additivity (A mean Combination Index in the range (0.7-1.3) is classified as Additivity); Combination Index (A431 cell line; [6]): 0.99; Meaning (A431 cell line; [8]): Additivity (A mean Combination Index in the range (0.7-1.3) is classified as Additivity)
5 | CC(=O)Nc1cc(-c2cnc(Cl)c(NS(=O)(=O)c3ccc(F)cc3F)c2C)ccn1 [Compound I-153, N-(6-chloro-5-{[(2,4-diflourophenyl)sulfonyl]amino}-4-methyl-3,4′-bipyridin-2′-yl)acetamide] | < 10 nM | 0.64 | 23.76 | 1.17 | Additivity (A mean Combination Index in the range (0.7-1.3) is classified as Additivity) | 0.97 | Additivity (A mean Combination Index in the range (0.7-1.3) is classified as Additivity) |  | 0.23 | Synergy (A mean in the range (0-0.7) is classified as Synergy) |  |  |  |  |  |  |  |  |  |  | Blending Synergy (NCI-H1975 cell line; [1]): 8.72; Blending Synergy (A431 cell line; [3]): 16.3; Meaning (A431 cell line; in combination with Erlotinib, call from Nonlinear Blending Synergy): Additivity
6 | Cc1nccc(Nc2cc(-c3cncc(C(C)Oc4ccccc4F)c3)ccn2)n1 (centres unmarked) [Compound I-422, 5-[1-(2-fluorophenoxy)ethyl]-N-(2-methylpyrimidin-4-yl)-3,4′-bipyridin-2′-amine] | 10 to 50 nM |  |  |  |  |  |  |  |  |  |  |  |  |  |  |  |  |  |  |  | 
